According to patent US20070254332A1, “Method for Readily Detecting Class C Beta-Lactamase-Producing Bacteria” (JAPAN HEALTH SCIENCES FOUNDATION, priority 2003, published 2007):
Values after ≈ are worked out from the molar mass of the structure shown.

Legend:
Assay type in all cases: cell-based
C. freundi HKY543 = assay: Disk test, CAZ disk versus CAZ + APB disk (second aspect); settings: overnight culturing
Description: (§2) In the same manner as in Embodiment 1, the test bacterium was inoculated onto a Mueller-Hinton agar medium, and KB disks (6 mm in diameter) of CAZ were positioned at least 3 cm apart center-on-center. […] After overnight culturing, the diameters of the growth inhibitory zones around the two CAZ disks were measured.

E. cloacae HKY226 [1] = assay: MIC by trace quantity liquid dilution method; settings: Enterobacter cloacae
Description: (§1) Following overnight culturing, the MIC was measured.

C. freundii HKY543 = assay: MIC by trace quantity liquid dilution method; settings: Citrobacter freundii
Description: as §1

S. marcescens S94 = assay: MIC by trace quantity liquid dilution method; settings: Serratia marcescens
Description: as §1

[2] = tested on: Klebsiella pneumoniae NU2936 (MOX-1: Class C); assay: MIC by trace quantity liquid dilution method
Description: as §1

[3] = tested on: K. pneumoniae NCB02189 DHA-1 + CTX-M9; assay: MIC by trace quantity liquid dilution method; settings: Klebsiella pneumoniae
Description: as §1

P. aeruginosa NCB03-192 = assay: MIC by trace quantity liquid dilution method; settings: Pseudomonas aeruginosa, NCB03192
Description: as §1

E. coli NS12 CMY-2 = assay: MIC by trace quantity liquid dilution method; settings: Escherichia coli, NS12CMY2
Description: as §1

[4] = tested on: Klebsiella pneumoniae KP1 15 (IMP-1: Class B); assay: MIC by trace quantity liquid dilution method
[5] = tested on: Klebsiella pneumoniae HKY402 (SHV-12: Class A); assay: MIC by trace quantity liquid dilution method
[6] = tested on: K. pneumoniae SHV-12 Class A; assay: Disk test, CAZ disk versus CAZ + APB disk (second aspect); settings: overnight culturing
Description: as §2

E. cloacae HKY226 [7] = assay: as above; settings: overnight culturing
Description: as §2

Structure (SMILES): CC(C)(O/N=C(\C(=O)N[C@@H]1C(=O)N2C(C(=O)[O-])=C(C[n+]3ccccc3)CS[C@H]12)c1csc(N)n1)C(=O)O [CAZ, ceftazidime]
- Inhibitory zone around the disk (C. freundi HKY543): A small inhibitory zone was observed
- MIC (E. cloacae HKY226 [1]): 256 µg/mL (≈ 468 µM)
- MIC (C. freundii HKY543): 64 µg/mL (≈ 117 µM)
- MIC (S. marcescens S94): 64 µg/mL (≈ 117 µM)
- MIC [2]: 64 µg/mL (≈ 117 µM)
- MIC [3]: 64 µg/mL (≈ 117 µM)
- MIC (P. aeruginosa NCB03-192): 16 µg/mL (≈ 29.3 µM)
- MIC (E. coli NS12 CMY-2): 64 µg/mL (≈ 117 µM)
- MIC [4]: 256 µg/mL (≈ 468 µM)
- MIC [5]: > 512 µg/mL
- Inhibitory zone around the disk [6]: No inhibitory zones observed around
- Inhibitory zone around the disk (E. cloacae HKY226 [7]): No inhibitory zone was observed around
